Results on 1 molecule are retold here after article PMC11272598, “RG7774 (Vicasinabin), an orally bioavailable cannabinoid receptor 2 (CB2R) agonist, decreases retinal vascular permeability, leukocyte adhesion, and ocular inflammation in animal models” (Frontiers in Pharmacology, 2024).

For one series, the system named is Human DAGL. Nature of the series: Human DAGL assay (HaCaT cells). Type of series: biochemical. The note with it: RG7774 10 µM. As for the experimental part:
Mouse brain or human HaCaT cells (CLS Cell Lines Service, GmbH, Eppelheim, Germany) were homogenized in 50 mM Tris-HCl (pH 7.4) using a glass potter, and homogenates were centrifuged at 4°C sequentially at 800 g (10 min) and 10,000 g (30 min). The final pellet (80–200 µg) was resuspended in 50 mM Tris-HCl (pH 7.4) containing 10 mM CaCl2 and incubated at 37°C for 30 min with sn-1[^14C]-stearoyl-2-arachidonoyl-glycerol (100 µM) (ARC, MO, USA). Reactions were stopped by adding chloroform/methanol (2:1, v/v), and the organic phase was dried and fractionated by thin-layer chromatography on silica gel, as previously reported. Levels of 1[^14C]-stearoyl acid radioactivity were determined by cutting the appropriate band from the gel and analyzing using a β-scintillation counter. Mouse cells were preincubated for 15 min with RG7774 (10 µM) and added to the incubation medium. Human cells were preincubated for 15 min with 8 different concentrations of RG7774 (0.1-500 µM) and added to the incubation medium. Control experiments were carried out in the presence of the selective DAGL inhibitor, D053 (10 µM).

Series [1] is described as follows: Aqueous stability assay (ASTA). The settings on record: 37 °C, 2 h. The class given is physicochemical. Here is the method:
Aqueous solutions of RG7774 were prepared at 5 different pHs (pH 1-10) from DMSO stock solutions, added to incubation plates and shaken for 10 min at 37 °C. Solutions were transferred to a filter plate (Millipore MSGVN2250, pore size 0.22 μm) and filtered into V-bottom plates (ABGene, AB-0800) prior to heat-sealing. The procedure was repeated, increasing the 37 °C incubation time by 2 h. Samples were analyzed by HPLC at 0 and 2 h. A compound was classified as unstable if < 90% of the initial concentration was detected after 2 h.

Another series has as its target human CB1R (Homo sapiens, UniProt P21554). Nature of the series: Competition binding, [^3H]-CP55940, CHO cell membranes. Also noted: expressed in transfected cells; host or cells: CHO cells (membranes). The settings on record: CHO cells. As for the experimental part:
Competition and saturation binding assays were performed using the radiolabeled CB1R/CB2R agonist [^3H]-CP55940 (PerkinElmer, Waltham, MA, United States) in recombinant cell systems, and the newly developed CB2R-selective agonist [^3H]-RO6753361 ([Chicca et al., 2024]) in cells expressing endogenous CB1R/CB2R. Competition assays were conducted by incubating 5, 40, or 40 µg of membrane protein from CHO cells, Jurkat cells or spleen cells, respectively, with 1.5 nM [^3H]-CP55940 or 1.5 nM [^3H]-RO6753361 in the presence or absence of increasing concentrations of ligand (RG7774 or control) for 2 h at 30°C in a final volume of 0.2 mL of assay buffer (50 mmol/L Tris-HCl, 5 mmol/L MgCl2, 2.5 mmol/L EDTA, and 0.5% fatty acid-free BSA [pH 7.4] and 1% DMSO), with gentle shaking. Saturation binding assays were conducted by incubating 1–3 μg, 40 μg, or 30–40 μg of membrane protein from CHO cells, Jurkat cells, or spleen tissue, respectively, with 12 concentrations in the range of 80–0.039 nM [^3H]-CP55940 or [^3H]-RO6753361 for 2 h at 30°C in a final volume of 0.2 mL/well of assay buffer without DMSO. […] IC50 values and Hill slopes were determined with a 4-parameter logistic model using ActivityBase (ID Business Solution, Guilford, United Kingdom) and pKi values were determined using the Cheng-Prusoff equation ([Cheng and Prusoff, 1973]).

Another series in a line: Hepatocyte clearance. The class given is in vitro ADME. The settings on record: read-out: Hepatocyte CL. Here is the method:
For animals, hepatocyte suspension cultures were either freshly prepared by liver perfusion or from cryopreserved hepatocyte batches (BioIVT, NY, USA). For humans, commercially-available, pooled (5–20 donors), cryopreserved human hepatocytes from nontransplantable liver tissues were used (BioIVT). Suspension cultures were incubated in Nunc U96 PP-0.5 mL plates (Nunc Natural, 267245) in a Thermo Forma incubator (Fischer Scientific, Wohlen, Switzerland) equipped with Variomag® Teleshake shakers (Sterico, Wangen, Switzerland) to maintain cell dispersion. The cell culture medium was William’s media supplemented with glutamine, antibiotics, insulin, dexamethasone, and 10% FCS. RG7774 (1 μM) were incubated in 96-well plates containing suspension cultures (1 × 10^6 hepatocytes/mL [~1 mg/mL protein concentration]), with each well containing a total volume of 100 μL. Plates were shaken at 900 rpm for up to 2 h in 5% CO2 at 37 °C. Reactions were quenched after 3, 6, 10, 20, 40, 60, and 120 min with 200 μL methanol containing an internal standard. Samples were cooled, centrifuged, and analyzed by LC-MS/MS. Log peak area ratios (test compound peak area/internal standard peak area) or concentrations were plotted against incubation time using a linear fit to the data with emphasis on the initial rate of compound disappearance.

Series [2] in a line: Kinetic lyophilization solubility assay (LYSA). Type of series: physicochemical. The note with it: aqueous buffer, 0.05 M PBS pH 6.5. Here is the method:
RG7774 samples were prepared in duplicate from 10 mM DMSO stock solutions. DMSO was evaporated for 1 h using a centrifugal vacuum evaporator (Genevac Technologies, UK) and the residue was dissolved in 0.05 M PBS (pH 6.5), stirred for 1 h, and shaken for 2 h. Solutions were filtered 12 h later using a microtiter filter plate (MSDV N65; Merck Millipore, MA, USA). The filtrate and its 1:10 dilution were analyzed by direct ultraviolet (UV) measurement or high-performance liquid chromatography with UV spectroscopy (HPLC-UV). […] The measurement range for a compound with molecular weight 500 was 0 to 666 μg/mL.

In brackets after ≈: the same amount, converted by molar mass. Read-outs that look alike come from different tables or passages of the source.

Sequence of human CB1R (P21554 whole entry): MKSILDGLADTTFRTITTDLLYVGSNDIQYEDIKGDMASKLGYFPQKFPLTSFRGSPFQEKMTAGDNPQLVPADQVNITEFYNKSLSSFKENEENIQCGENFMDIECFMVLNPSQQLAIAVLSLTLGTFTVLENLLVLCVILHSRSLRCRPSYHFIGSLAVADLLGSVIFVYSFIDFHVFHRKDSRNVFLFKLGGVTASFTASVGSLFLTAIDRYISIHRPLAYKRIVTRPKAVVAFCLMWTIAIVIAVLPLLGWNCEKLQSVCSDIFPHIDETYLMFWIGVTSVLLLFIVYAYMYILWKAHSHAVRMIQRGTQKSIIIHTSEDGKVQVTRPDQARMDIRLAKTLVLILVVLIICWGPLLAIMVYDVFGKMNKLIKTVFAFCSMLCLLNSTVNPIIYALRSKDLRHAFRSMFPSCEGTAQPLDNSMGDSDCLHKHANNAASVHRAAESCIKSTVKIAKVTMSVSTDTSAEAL

Regarding `Cn1nnnc1Cn1nnc2c(N3CC[C@H](O)C3)nc(C(C)(C)C)nc21` [RG7774, (S)-1-(5-tert-butyl-3-[(1-methyl-1H-tetrazol-5-yl)methyl]-3H-[1,2,3]triazolo[4,5-d]pyrimidin-7-yl)pyrrolidin-3-ol], the “Mean ± SEM % inhibition of control, Human DAGL” value in the series with Human DAGL amounted to 4.2 ± 52.2%. Moreover, in series [1], the “Chemical stability in aqueous media at pH 1–10” value was “stable”. Moreover, the “binding to recombinant human CB1R” value at human CB1R is given as “no binding”. Also, the hepatocyte CLint at 1 µM in “Hepatocyte clearance” (human, pooled cryopreserved human hepatocytes in suspension) came out at 1.7 µL/min/1e6 cells; in the series “Hepatocyte clearance” (mouse) it was 49.3 µL/min/1e6 cells; in “Hepatocyte clearance” (rat), 37.9 µL/min/1e6 cells. Moreover, the solubility (kinetic) (commonly solubility judged after dilution from a stock solution rather than from solid) in series [2] is 285 µg/mL (≈ 795 µM).
